pIC50: −log10 of the molar value.

Experiment [1] concerns CT26 mouse tumour cells. Nature of the experiment: Survival studies in CT26, a murine syngeneic colon carcinoma tumour model. Format: in vivo. The settings on record: Balb/C mice; RT 2Gy x5 plus 30 mg/kg once a week p.o.; vs control or RT; FIG. 12. Here is the method:
Experiments were conducted on female mice (Balb/C genotype, at least 5 weeks old). CT26 mouse tumour cells (CRL-2638) were purchased from ATCC. CT26 mouse tumour cells (1×10^6) were implanted subcutaneously in the flank of mice on day 0. Mice in radiotherapy alone (RT) group and combination group were anesthetized and received radiation therapy (2Gy) at days 7, 8, 9, 10, and 11. Mice in combination group were also treated with a compound of Example 3 (30 mg/kg once a week) administered orally (p.o.) or Example 4 (5 mg/kg once a week) administered intravenously (i. v.) on days 7, 14, 22, and 27. Tumour volumes were assessed at least twice weekly by bilateral vernier caliper measurements. Survival period was determined by the time taken for tumours to reach 4 times the volume at the time of treatment.

Experiment [2] has as its target hERG potassium channel (Homo sapiens (Human), UniProt Q12809). The experiment can be described thus: hERG Analysis - Method 2 (QPATCH HT, CHO-hERG cells). Format: cell-based. Particulars: half-maximal inhibition concentration, 22±2° C. As for the experimental part: The hERG potassium current was measured in a hERG-stably-expressing Chinese hamster ovary K1 (CHO) cells. The experiments were performed using an automated planar patch-clamp system QPATCH HT (Sophion Bioscience A/S). The application of pressure for forming gigaseals and whole-cell patch clamp configuration were established using the QPATCH assay software. Patch-clamp experiments were performed in voltage-clamp mode and whole-cell currents were recorded from individual cells. The following stimulation protocol was applied to investigate the effects of compounds on hERG potassium channel: The membrane potential was held at −80 mV and repetitively (every 15 s) depolarized to +20 mV for 5 s after the pulse to −50 mV for 20 ms served to define the baseline, followed by repolarizing step to −50 mV for 5 s to evaluate of the tail current amplitude. Experiments were conducted at room temperature (22±2° C.).
Effects of compounds were determined from cumulative applications of increasing 4 concentrations and calculated as percent of blocked current. The data points were fitted with Hill equation to calculate half-maximal inhibition concentrations. The test solution includes: Extracellular solution (mM): 2 mM of CaCl2, 1 mM of MgCl2, 10 mM of HEPES, 4 mM of KCl, 145 mM of NaCl, and 10 mM of Glucose; and Intracellular solution (mM): 5.4 mM of CaCl2, 1.8 mM of MgCl2, 10 mM of HEPES, 31 mM of KOH, 10 mM of EGTA, 120 mM of KCl, and 4 mM of ATP.

Experiment [3] deals with human TLR8 (Homo sapiens (Human), UniProt Q9NR97). Nature of the experiment: Human TLR8 assay (TLR8/NF-kB/SEAPorter HEK 293 Cell Line). Particulars: SEAP induction, overnight incubation at 37° C., 0.1% DMSO; read-out: TLR8 pEC50 (converted). Format: cell-based. The text has this: TLR8/NF-kB/SEAPorter™ HEK 293 Cell Line (Imgenex Corporation) is a stably co-transfected cell line which expresses full-length human TLR8 and the secreted alkaline phosphatase (SEAP) reporter gene under the transcriptional control of an NF-κB response element. TLR8 expression in this cell line has been tested by flow cytometry. Transfectants with stable expression were selected using the antibiotic blasticidin and geneticin. TLR signaling leads to the translocation of NF-κB and activation of the promoter results in expression of the SEAP gene. TLR8-specific activation was assessed by determining the level of SEAP produced following overnight incubation of the cells at 37° C. with the standard compound in the presence of 0.1% (v/v) dimethylsulfoxide (DMSO). Concentration dependent induction of SEAP production by compounds was expressed as the concentration of compound which produced half of the maximal level of SEAP induction for that compound (EC50).
Sequence of human TLR8 (Q9NR97 27-1041): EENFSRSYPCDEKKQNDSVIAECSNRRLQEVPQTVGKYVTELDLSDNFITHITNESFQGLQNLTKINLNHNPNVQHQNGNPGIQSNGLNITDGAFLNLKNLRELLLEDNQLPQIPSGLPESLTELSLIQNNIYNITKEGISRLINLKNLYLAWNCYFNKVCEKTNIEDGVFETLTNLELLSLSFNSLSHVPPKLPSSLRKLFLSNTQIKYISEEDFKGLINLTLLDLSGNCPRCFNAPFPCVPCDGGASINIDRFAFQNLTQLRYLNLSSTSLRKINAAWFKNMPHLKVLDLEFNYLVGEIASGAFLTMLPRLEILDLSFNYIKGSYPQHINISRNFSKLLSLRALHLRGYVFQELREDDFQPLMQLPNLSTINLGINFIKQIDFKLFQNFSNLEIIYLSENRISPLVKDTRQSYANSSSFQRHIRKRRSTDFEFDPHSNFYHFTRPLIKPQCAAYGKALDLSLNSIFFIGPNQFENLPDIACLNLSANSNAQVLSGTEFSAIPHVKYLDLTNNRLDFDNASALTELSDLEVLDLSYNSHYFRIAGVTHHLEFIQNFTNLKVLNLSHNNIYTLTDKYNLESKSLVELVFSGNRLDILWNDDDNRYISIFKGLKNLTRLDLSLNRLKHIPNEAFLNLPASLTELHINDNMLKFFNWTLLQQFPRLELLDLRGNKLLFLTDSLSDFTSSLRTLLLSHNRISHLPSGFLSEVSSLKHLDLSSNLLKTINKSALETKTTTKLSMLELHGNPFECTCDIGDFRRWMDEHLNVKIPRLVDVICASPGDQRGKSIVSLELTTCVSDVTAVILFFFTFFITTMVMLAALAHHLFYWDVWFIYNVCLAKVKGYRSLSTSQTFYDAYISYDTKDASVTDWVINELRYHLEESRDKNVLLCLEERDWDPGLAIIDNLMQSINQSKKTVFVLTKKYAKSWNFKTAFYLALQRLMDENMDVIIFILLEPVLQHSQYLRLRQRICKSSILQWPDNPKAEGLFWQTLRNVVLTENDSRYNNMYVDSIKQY

Sequence of hERG potassium channel (Q12809 whole entry): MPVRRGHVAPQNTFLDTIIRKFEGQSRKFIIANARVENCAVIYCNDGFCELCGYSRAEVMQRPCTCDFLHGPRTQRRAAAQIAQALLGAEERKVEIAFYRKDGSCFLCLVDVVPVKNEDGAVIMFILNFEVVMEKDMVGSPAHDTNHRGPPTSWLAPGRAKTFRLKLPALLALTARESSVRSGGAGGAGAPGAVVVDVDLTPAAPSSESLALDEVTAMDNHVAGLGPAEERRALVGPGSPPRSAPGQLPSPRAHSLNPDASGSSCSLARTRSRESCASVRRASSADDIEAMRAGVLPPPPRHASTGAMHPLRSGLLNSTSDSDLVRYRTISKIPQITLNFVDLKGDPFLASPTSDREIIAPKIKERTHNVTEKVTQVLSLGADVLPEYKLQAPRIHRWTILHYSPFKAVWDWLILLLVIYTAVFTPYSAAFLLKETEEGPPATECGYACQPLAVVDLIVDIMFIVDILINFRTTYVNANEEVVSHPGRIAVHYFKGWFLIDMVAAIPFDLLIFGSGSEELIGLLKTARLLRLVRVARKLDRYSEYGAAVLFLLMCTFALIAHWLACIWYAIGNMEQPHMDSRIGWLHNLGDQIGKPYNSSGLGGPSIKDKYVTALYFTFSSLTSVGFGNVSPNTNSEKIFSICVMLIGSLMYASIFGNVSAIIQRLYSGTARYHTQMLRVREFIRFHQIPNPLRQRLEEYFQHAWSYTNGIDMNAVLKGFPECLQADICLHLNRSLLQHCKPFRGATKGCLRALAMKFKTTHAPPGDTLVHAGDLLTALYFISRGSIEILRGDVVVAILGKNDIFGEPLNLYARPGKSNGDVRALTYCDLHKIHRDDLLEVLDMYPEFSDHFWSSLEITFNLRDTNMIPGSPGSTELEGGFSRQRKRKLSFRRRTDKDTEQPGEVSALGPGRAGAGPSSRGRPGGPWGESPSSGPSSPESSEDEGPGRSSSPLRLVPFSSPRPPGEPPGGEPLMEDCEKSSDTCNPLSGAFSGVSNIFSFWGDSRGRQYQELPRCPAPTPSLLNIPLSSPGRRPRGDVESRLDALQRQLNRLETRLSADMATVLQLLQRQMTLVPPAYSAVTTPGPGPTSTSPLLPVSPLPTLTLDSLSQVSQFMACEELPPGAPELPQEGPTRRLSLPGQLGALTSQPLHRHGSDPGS

The term pIC50 denotes the negative decadic logarithm of the IC50, by convention in mol/L. A low value points to a high IC50. As to `CCC[C@@H](CCO)Nc1nc(N)nc(C)c1Cc1ccc(CN(CC(=O)O)CC(F)F)cc1OC` [Example 3, (S)-2-((4-((2-amino-4-(1-hydroxyhexan-3-ylamino)-6-methylpyrimidin-5-yl)methyl)-3-methoxybenzyl)(2,2-difluoroethyl)amino)acetic acid], the “Survival period (time for tumours to reach 4 times the volume at treatment)” value in experiment [1] is “survived significantly longer”. The pIC50 in experiment [2] was under 5.00. In experiment [3], the EC50 was over 10 µM.

The values are drawn from patent publication US10150743B2, “Carboxylic acid compounds” (priority 2012, dated 2018).
